# Data reported in patent US10598672B2, “Methods and compositions for diagnosing and treating loss and/or distortion of taste or smell” (Cyrano Therapeutics, Inc., priority 2014, dated 2020).
# Tests used:
# Format in all cases: in vivo, human
# [1] = test system: patients with taste dysfunction; test: Subjective taste acuity and flavor perception (0-100 scale); conditions: for FLAVOR PERCEPTION: DEGREE OF IMPROVEMENT / TASTE ACUITY: DEGREE OF IMPROVEMENT: Mean ± SEM
# Experimental: Subjective statements of acuity loss were quantitated by use of a scale from 0-100 with 100 reflecting total loss of taste function, 0 reflecting no loss and a number between 0-100 reflecting appropriate degree of loss. Mean±SEM of loss degree was measured among all patients and each pathology initiating taste dysfunction.
# Subjective statements of taste acuity loss and loss of flavor perception were quantitated by use of a scale from 0-100 with 100 reflecting total loss of taste acuity or flavor perception, 0 reflecting no loss and a number between 0-100 reflecting appropriate degree of loss. […] Mean±SEM of loss degree was measured among all patients and each pathology initiating taste dysfunction.
# […] Saliva Shh and measurements of taste function by use of subjective responses of acuity and flavor perception and in olfactometry was measured at intervals of 2-6 months in these patients.
# [2] = Serum theophylline level by fluorescence polarization
# Experimental: (§1) Serum theophylline levels were measured by fluorescence polarization at each treatment condition. Body weight was measured with a calibrated clinical scale during each study condition and reported at the final measurement in each study condition.
# [3] = Body weight with calibrated clinical scale; conditions: 10 patients
# Experimental: as §1
# [4] = test system: patients with hyposmia and hypogeusia; test: Adverse effects during intranasal theophylline pilot study; conditions: intranasal drug use, 10 patients, 4 weeks
# Description: We performed an open-label pilot study in patients with hyposmia and hypogeusia under the following 3 conditions: (1) before treatment, (2) after oral theophylline treatment, and (3) after intranasal theophylline treatment. Under each condition, we performed subjective evaluations of taste or smell functions, quantitative measurements of taste (gustometry) and smell (olfactometry), and measurements of serum theophylline level and body weight.
# A pilot study of intranasal theophylline treatment was then initiated among these 10 patients. This trial was an investigator initiated phase 1, open-label, single-source, controlled pilot study. Intranasal drug therapy reflected a compassionate trial of a potentially more useful therapeutic method to improve hyposmia (and hypogeusia) than oral theophylline. Before the intranasal trial, risks and benefits were explained and the patients signed an informed consent.
# Each patient delivered the theophylline dose in each naris once daily throughout the study. Patients underwent evaluation 1, 2, and 4 weeks during drug use with the same measurements used for the oral study.
# [5] = MEN, patient number 38, after oral theophylline
# [6] = WOMEN, patient number 41, after oral theophylline
# [7] = all patients, patient number 79, after oral theophylline
compound,measurement,setting,value
Cn1c(=O)c2[nH]cnc2n(C)c1=O [theophylline],FLAVOR PERCEPTION: I[…],[1]; [5],22
same,"FLAVOR PERCEPTION: I[…], figure in parentheses",[1]; [5],58
same,TASTE ACUITY: I[…],[1]; [5],21
same,"TASTE ACUITY: I[…], figure in parentheses",[1]; [5],55
same,FLAVOR PERCEPTION: DEGREE OF IMPROVEMENT,[1]; [5],18 ± 4%
same,TASTE ACUITY: DEGREE OF IMPROVEMENT,[1]; [5],20 ± 5%
same,FLAVOR PERCEPTION: I[…],[1]; [6],23
same,"FLAVOR PERCEPTION: I[…], figure in parentheses",[1]; [6],54
same,TASTE ACUITY: I[…],[1]; [6],24
same,"TASTE ACUITY: I[…], figure in parentheses",[1]; [6],59
same,FLAVOR PERCEPTION: DEGREE OF IMPROVEMENT,[1]; [6],36 ± 6%
same,TASTE ACUITY: DEGREE OF IMPROVEMENT,[1]; [6],35 ± 6%
same,patients with improvement in both subjective taste acuity and flavor perception,[1]; after oral treatment 200-1000 mg for 2-10 months,about 60%
same,FLAVOR PERCEPTION: I[…],[1]; [7],45
same,"FLAVOR PERCEPTION: I[…], figure in parentheses",[1]; [7],63
same,TASTE ACUITY: I[…],[1]; [7],45
same,"TASTE ACUITY: I[…], figure in parentheses",[1]; [7],63
same,FLAVOR PERCEPTION: DEGREE OF IMPROVEMENT,[1]; [7],24 ± 4%
same,TASTE ACUITY: DEGREE OF IMPROVEMENT,[1]; [7],28 ± 4^+ %
same,mean (SEM) serum theophylline level,"[2]; during oral treatment, at time of maximum improvement, 10 patients",6.4 (2.0) mg/L
same,concentration at 4 weeks,"[2]; human, serum, other: intranasal, 20 μg per naris, during intranasal treatment",0 ng/mL
same,"weight increase from pretreatment values, mean (SEM)",[3]; after intranasal treatment,2.5 (0.5) kg
same,"weight increase from pretreatment values, mean (SEM)",[3]; after oral treatment,1.5 (0.4) kg
same,adverse effects,[4],No adverse effects
